Experimental data from ChEMBL document CHEMBL3585263, “Novel Octahydropyrrolo[3,4-c]pyrroles Are Selective Orexin-2 Antagonists: SAR Leading to a Clinical Candidate” (J Med Chem, 2015).

Experiments:
Orexin receptor type 2 [1] = target: T1, Orexin receptor type 2 (Homo sapiens, UniProt O43614); assay: Binding affinity to human OX2 receptor
T1 sequence (O43614 whole entry): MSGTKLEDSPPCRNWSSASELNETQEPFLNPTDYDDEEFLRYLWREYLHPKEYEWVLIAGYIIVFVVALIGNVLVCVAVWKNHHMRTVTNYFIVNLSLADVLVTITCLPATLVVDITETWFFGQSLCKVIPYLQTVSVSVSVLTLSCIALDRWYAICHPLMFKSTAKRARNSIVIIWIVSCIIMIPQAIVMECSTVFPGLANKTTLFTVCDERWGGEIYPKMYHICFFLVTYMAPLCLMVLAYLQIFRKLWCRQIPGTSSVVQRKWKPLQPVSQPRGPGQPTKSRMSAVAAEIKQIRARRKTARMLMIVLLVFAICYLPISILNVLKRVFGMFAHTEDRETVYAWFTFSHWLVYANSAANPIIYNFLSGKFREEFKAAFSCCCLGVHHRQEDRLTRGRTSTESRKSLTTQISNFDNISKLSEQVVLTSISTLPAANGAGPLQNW

[2] = target: T2, Orexin/Hypocretin receptor type 1 (Homo sapiens, UniProt O43613); assay: Binding affinity to human OX1 receptor
T2 sequence (O43613 whole entry): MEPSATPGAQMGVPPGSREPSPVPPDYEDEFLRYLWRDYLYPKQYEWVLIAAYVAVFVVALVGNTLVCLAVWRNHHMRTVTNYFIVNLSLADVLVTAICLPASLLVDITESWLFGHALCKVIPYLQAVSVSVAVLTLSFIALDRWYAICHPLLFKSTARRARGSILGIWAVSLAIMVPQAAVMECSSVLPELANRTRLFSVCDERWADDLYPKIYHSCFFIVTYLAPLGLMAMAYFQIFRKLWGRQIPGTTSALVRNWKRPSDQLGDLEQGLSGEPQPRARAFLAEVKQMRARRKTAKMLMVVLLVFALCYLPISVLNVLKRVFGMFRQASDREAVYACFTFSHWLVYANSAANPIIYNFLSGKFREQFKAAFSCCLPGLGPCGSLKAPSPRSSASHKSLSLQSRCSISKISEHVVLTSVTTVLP

Orexin receptor type 2 [3] = target: T1, Orexin receptor type 2; assay: Displacement of [3H]EMPA from human OX2 receptor expressed in human PFSK-1 cells; assay type: cell-based

Structure (SMILES): COc1cccc(OC)c1C(=O)N1C[C@@H]2CN(c3nc4ccc(Cl)cc4s3)C[C@@H]2C1
- Ki (Orexin receptor type 2 [1]): 2.2 µM
- Ki [2]: 6.85 µM
- Ki (Orexin receptor type 2 [3]): 1.6 µM
